This is an account of results in BindingDB's records for doi:10.1016/S0960-894X(01)80380-2 (1994).

Molecules are shown by their SMILES.

As a reminder, the IC50 is the concentration that gives 50% inhibition. The low end stands for greater potency in that assay, the high end for weaker potency in that assay.

The nature of this test: Inhibition of ADP-mediated platelet aggregation in human gel-filtered platelets.
Consider `O=C(O)CCN1Cc2ccc(C(=O)NCCC3CCNCC3)cc2C1=O` [3-[1-Oxo-6-(2-piperidin-4-yl-ethylcarbamoyl)-1,3-dihydro-isoindol-2-yl]-propionic acid], for which it took 10000 nM to reach half-maximal inhibition (IC50).
Molecule `O=C(O)CCNC(=O)c1cccc(C(=O)NCCC2CCNCC2)c1` [3-[3-(2-Piperidin-4-yl-ethylcarbamoyl)-benzoylamino]-propionic acid] gave a concentration for half-maximal inhibition (IC50) of 530 nM.
To `O=C(O)CCNC(=O)c1ccnc(C(=O)NCCC2CCNCC2)c1` [3-{[2-(2-Piperidin-4-yl-ethylcarbamoyl)-pyridine-4-carbonyl]-amino}-propionic acid] belongs 1600 nM.
To `O=C(O)CCNC(=O)c1cc(C(=O)NCCC2CCNCC2)ccn1` [3-{[4-(2-Piperidin-4-yl-ethylcarbamoyl)-pyridine-2-carbonyl]-amino}-propionic acid] belongs 1100 nM; to `O=C(O)CCNC(=O)c1cncc(C(=O)NCCC2CCNCC2)c1` [3-{[5-(2-Piperidin-4-yl-ethylcarbamoyl)-pyridine-3-carbonyl]-amino}-propionic acid], 2000 nM; to `O=C(O)CCNC(=O)c1cccc(C(=O)NCCC2CCNCC2)n1` [3-{[6-(2-Piperidin-4-yl-ethylcarbamoyl)-pyridine-2-carbonyl]-amino}-propionic acid], 300000 nM.
